The values that follow come from ChEMBL document CHEMBL1201862, “PubChem BioAssay data set” (2004).

Molecules are shown by their SMILES.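 Exposure lasted 48 hours, with cells grown in 96-well plates and compounds tested at five concentrations. Here, GI50 denotes the concentration required for 50% inhibition of growth.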 Activity calls are given as the source filed them. Rule as the data show it: active = GI50 up to about 1.1 µM and inactive = higher. Non-standard residues stand in square brackets, D forms with d. Residues, ends and D or L forms follow the SMILES beside them. ξ: configuration not given here. *: point of attachment. dThr(3ξ) = CC(O)[C@@H](N)C(=O)O; dNMeL = CN[C@H](CC(C)C)C(=O)O; OBn = c1ccc(CO*)cc1; ξLac = CC(O)C(=O)O Bounds are passed on as bounds.

Common to all, as to test: growth of human tumour cells (NCI), 48 h
The subject of assay [1] is HL-60.
The test system of assay [2] is MDA-N.
In assay [3] the test system is K562.
Assay [4] concerns OVCAR-5.
Assay [5] has as its system MOLT-4.
Assay [6] concerns SNB-19.
The subject of assay [7] is HOP-62.
In assay [8] the test system is A498.
The test system of assay [9] is HOP-92.
The test system of assay [10] is SK-MEL-28.
The subject of assay [11] is UO-31.
In assay [12] the test system is UACC-257.
For assay [13], the system named is SF-539.
In assay [14] the test system is MDA-MB-435.
Assay [15] has as its system NCI-H226.
Assay [16] has as its system U-251.
The subject of assay [17] is PC-3.
Assay [18] concerns OVCAR-8.
The subject of assay [19] is Hs-578T.

Regarding `NC1=CN(CCCO)C2=N/C(=C\c3ccccc3)C(=O)N12`, the GI50 in assay [1] is 42.9 µM (inactive); in [2] it was > 100 µM (inactive); in assay [3], > 100 µM (inactive); in assay [4], > 100 µM (inactive); in assay [5], > 100 µM (inactive); in assay [6] it was > 100 µM (inactive). Besides, the GI50 was > 100 µM (inactive) in assay [7]; 85.7 µM (inactive) in assay [8]; > 100 µM (inactive) in [9]; > 100 µM (inactive) in [10]; > 100 µM (inactive) in [11]; > 100 µM (inactive) in assay [12]. The GI50 in assay [13], in assay [14], in assay [15], in assay [16], in assay [17] and in assay [18] was > 100 µM (inactive) in each case. The GI50 in assay [19] is 86.3 µM (inactive).
Regarding `CC(C)(C)OC(=O)NC(Cc1ccc(O)cn1)C(=O)O` (stereo not given), the GI50 in assay [1], in assay [2], in assay [3], in assay [4], in assay [5] and in [6] was > 100 µM (inactive) throughout. Further, the GI50 in [7], in [8], in [9], in assay [10], in assay [11] and in assay [12] was > 100 µM (inactive) each time. Moreover, the GI50 in [13], in assay [14], in assay [15], in assay [16], in assay [17] and in [18] was > 100 µM (inactive) throughout. Further, in assay [19], the GI50 is > 100 µM (inactive).
For `C[C@@H](CC(=O)O)OC1OC(COC(=O)C(C)(C)C)C(OC(=O)C(C)(C)C)C(OC(=O)C(C)(C)C)C1OC(=O)C(C)(C)C` (stereo not given in full), the GI50 was 21.9 µM (inactive) in assay [1]; 69.7 µM (inactive) in assay [2]; 34.4 µM (inactive) in assay [3]; > 100 µM (inactive) in assay [4]; 38.6 µM (inactive) in assay [5]; 28.2 µM (inactive) in [6]. Also, the GI50 was > 100 µM (inactive) in assay [7]; > 100 µM (inactive) in [8]; 38.1 µM (inactive) in assay [9]; 89.7 µM (inactive) in assay [10]; > 10 µM (inactive) in assay [11]; > 100 µM (inactive) in assay [12]. The GI50 in [13] was 52.8 µM (inactive); in [14], 53.3 µM (inactive); in [15] it was > 100 µM (inactive); in assay [16], 40 µM (inactive); in assay [17], 46.9 µM (inactive); in [18], 81.7 µM (inactive). Moreover, the GI50 in [19] was 58.7 µM (inactive).
For `Cc1cc(C)n(CC(Cn2nc(C)cc2C)=C(/C(Cl)=C(/Cl)Nc2ccc([N+](=O)[O-])cc2)[N+](=O)[O-])n1`, the GI50 in assay [1] was 1.54 µM (inactive); in assay [2], 3.74 µM (inactive); in assay [3] it was 1.65 µM (inactive); in assay [4] it was 7.78 µM (inactive); in assay [5] it was 1.79 µM (inactive); in assay [6], 4.49 µM (inactive). For the same compound, the GI50 is 4.46 µM (inactive) in [7]; 3.37 µM (inactive) in assay [8]; 2.47 µM (inactive) in assay [9]; 7.06 µM (inactive) in assay [10]; 2.74 µM (inactive) in assay [11]; 3.4 µM (inactive) in assay [12]. Further, the GI50 is 3.52 µM (inactive) in assay [13]; 1.84 µM (inactive) in [14]; 10.2 µM (inactive) in assay [15]; 3.53 µM (inactive) in assay [16]; 3.42 µM (inactive) in assay [17]; 3.35 µM (inactive) in [18]. In addition, the GI50 in assay [19] was 5.31 µM (inactive).
As to `Cc1cc2nc(O)c(C(C)C(=O)c3ccc(Cl)cc3)nc2cc1C` (stereo not given), the GI50 in assay [1] was 21.2 µM (inactive); in assay [2], 17.8 µM (inactive); in assay [3] it was 40.6 µM (inactive); in assay [4], 56.1 µM (inactive); in assay [5] it was 27.7 µM (inactive); in assay [6], 56.4 µM (inactive). Besides, the GI50 in [7] is 49.8 µM (inactive); in assay [8], 23.1 µM (inactive); in assay [9], 59.3 µM (inactive); in assay [10], 50.8 µM (inactive); in assay [11] it was 46.9 µM (inactive); in [12] it was 16.6 µM (inactive). The GI50 in assay [13] is 23.4 µM (inactive); in assay [14], 20.1 µM (inactive); in assay [15], 35 µM (inactive); in assay [16] it was 36.2 µM (inactive); in assay [17], 31 µM (inactive); in assay [18], 32.5 µM (inactive). Moreover, in [19], the GI50 was 54.6 µM (inactive).
Regarding `O=[N+]([O-])c1ccc(/C=N/n2c(CO)nc3ccccc32)o1`, the GI50 in [1] was 2.3 µM (inactive); in assay [2], 3.33 µM (inactive); in [3], 4.67 µM (inactive); in [4], 11.9 µM (inactive); in assay [5], 1.1 µM (active); in [6], 15.8 µM (inactive). For the same compound, the GI50 is 11.9 µM (inactive) in assay [7]; 17.9 µM (inactive) in [8]; 3.51 µM (inactive) in assay [9]; 3.52 µM (inactive) in [10]; 8.32 µM (inactive) in [11]; 2.44 µM (inactive) in assay [12]. Further, the GI50 was 17.9 µM (inactive) in [13]; 3.4 µM (inactive) in assay [14]; 15.1 µM (inactive) in assay [15]; 13.9 µM (inactive) in assay [16]; 10.2 µM (inactive) in [17]; 10.3 µM (inactive) in assay [18]. Moreover, in [19], the GI50 is 12.7 µM (inactive).
As for `Cc1ccc2c(c1)CC1(Cc3ccccc3C1=O)C2=O` (stereo not given), the GI50 is > 100 µM (inactive) in assay [1]; > 100 µM (inactive) in assay [2]; > 100 µM (inactive) in [3]; 55.6 µM (inactive) in [4]; > 100 µM (inactive) in [5]; > 100 µM (inactive) in assay [6]. Further, the GI50 in assay [7] was 44.4 µM (inactive); in assay [8], > 100 µM (inactive); in [9], 64.3 µM (inactive); in assay [10], > 100 µM (inactive); in assay [11], > 100 µM (inactive); in [12], > 100 µM (inactive). The GI50 in assay [13], in [14], in assay [15], in assay [16], in assay [17] and in assay [18] was > 100 µM (inactive) in each case. Further, the GI50 in assay [19] was > 100 µM (inactive).
`CCc1cn(C2CC(CO)C(CO)S2)c(=O)[nH]c1=O` (stereo not given): the GI50 in [1], in [2], in assay [3], in assay [4], in assay [5] and in assay [6] was > 100 µM (inactive) each time. Moreover, the GI50 in assay [7], in assay [8], in assay [9], in [10], in [11] and in [12] was > 100 µM (inactive) in each case. The GI50 in assay [13], in assay [14], in assay [15], in assay [16], in assay [17] and in assay [18] was > 100 µM (inactive) throughout. Also, the GI50 in assay [19] was > 100 µM (inactive).
On to `O=S(=O)(O)c1cc(S(=O)(=O)O)c2c(/N=N/c3cccc4ccccc34)c(O)ccc2c1`, for which the GI50 in [1], in [2], in assay [3], in [4], in assay [5] and in [6] was > 100 µM (inactive) each time. For the same compound, the GI50 in [7], in assay [8], in assay [9], in [10], in [11] and in assay [12] was > 100 µM (inactive) throughout. Moreover, the GI50 in assay [13], in assay [14], in assay [15], in assay [16], in assay [17] and in assay [18] was > 100 µM (inactive) each time. The GI50 in assay [19] is > 100 µM (inactive).
Regarding `CC(=O)OC(C)[C@@H](NC(=O)[C@@H](CC(C)C)N(C)C(=O)[C@@H]1CCCN1C(=O)C(C)O)C(=O)OCc1ccccc1` (stereo not given in full) (H-[ξLac]P[dNMeL][dThr(3ξ)](Ac)-OBn), the GI50 in assay [1], in assay [2], in [3], in assay [4], in assay [5] and in assay [6] was > 100 µM (inactive) throughout. The GI50 in assay [7], in assay [8], in [9], in assay [10], in [11] and in assay [12] was > 100 µM (inactive) in each case. For the same compound, the GI50 in assay [13], in assay [14], in assay [15], in assay [16], in assay [17] and in [18] was > 100 µM (inactive) each time. The GI50 in assay [19] is > 100 µM (inactive).
